The text below walks through data of patent US6046218A, “Pyridine derivative and medicament containing the same as an effective ingredient” (SS Pharmaceutical Co., Ltd., priority 1996, dated 2000).

In general, inhibition refers to the relative decrease from the control value, in per cent.

In one assay the test system is IL-4 production. As to the kind of experiment: Test 1: inhibition of IL-4 production in human T-cell strain ATL-16T(-) stimulated with PMA (R&D Systems EIA). It is filed as cell-based. Particulars: 10^-5 M, ATL-16T(-) 1×10^6 cells/0.5 ml/well, 20 nM PMA, 48 hours, read-out: Inhibition rate of IL-4 production. The protocol:
Test 1: Test on the inhibition of IL-4 production
Into individual wells of a 48-well microplate, the human T-cell strain ATL-16T(-) was poured at a concentration of 1×10^6 cells/0.5 ml/well (n=3), followed by the addition of a stimulator (20 nM of PMA) and a medicament at the same time. The resulting mixture was incubated in 5% CO2 at 37° C. for 48 hours. After incubation, 100 μl of the supernatant were collected and subjected to measurement by a human IL-4 EIA kit (R&D SYSTEMS, INC.). The inhibition rate was calculated according to the following formula. [formula]
`COc1cc(/C=C/C(=O)c2ccccc2)ncc1O` [Ex. 21, 5-hydroxy-4-methoxy-2-(3-oxo-3-phenyl-1-propenyl)pyridine]: the inhibition at 10 µM is 97.3%.

As to `CCCCCC(=O)/C=C/c1cc(OC(C)=O)c(OC(C)=O)cn1` [Ex. 11, 4,5-diacetoxy-2-(3-oxo-1-octenyl)pyridine], the inhibition at 10 µM turned out to be 94.1%.

For the compound `COCCOCOc1cc(/C=C/C(=O)c2ccccc2)ncc1OC` [Ex. 48, 5-Methoxy-4-methoxyethoxymethoxy-2-(3-oxo-3-phenyl-1-propenyl)pyridine], the inhibition at 10 µM worked out at 111%.

Take `COc1cnc(/C=C/C(O)c2ccccc2)cc1O` (stereo not shown) [Ex. 24, 4-Hydroxy-2-(3-hydroxy-3-phenyl-1-propenyl)-5-methoxypyridine]: the inhibition at 10 µM is 92.2%.

Regarding `CCCCCC(=O)/C=C/c1cc(OCCCC(=O)OCC)c(OC)cn1` [Ex. 13, Ethyl 4-[5-methoxy-2-(3-oxo-1-octenyl)-4-pyridyloxy]butanoate], the inhibition at 10 µM was determined as 87.9%.

Consider `CCCCCC(=O)/C=C/c1cc(O)c(O)cn1` [Ex. 22, 4,5-Dihydroxy-2-(3-oxo-1-octenyl)pyridine], for which the inhibition at 10 µM was found to be 111%.

Turning to `COc1cc(/C=C/C(=O)c2ccccc2)ncc1OC(C)=O` [Ex. 6, 5-Acetoxy-4-methoxy-2-(3-oxo-3-phenyl-1-propenyl)pyridine], the inhibition at 10 µM is 102%.

Take `CCCCOc1cc(/C=C/C(=O)c2ccccc2)ncc1OC` [Ex. 46, 4-Butoxy-5-methoxy-2-(3-oxo-3-phenyl-1-propenyl)pyridine]: the inhibition at 10 µM is 76.6%.

Regarding `CCCCCC(O)/C=C/c1cc(OCCCCCC(=O)OC)c(OC)cn1` (stereo not shown) [Ex. 30, Methyl 6-[2-(3-hydroxy-1-octenyl)-5-methoxy-4-pyridyloxy]hexanoate], the inhibition at 10 µM came out at 74%.

Take `CCOC(=O)COc1cc(/C=C/C(=O)c2ccccc2)ncc1OC` [Ex. 45]: the inhibition at 10 µM was 89.5%.

Turning to `COCOc1cnc(/C=C/C(=O)c2ccccc2)cc1OCOC` [Ex. 5, 4,5-Bis(methoxymethyloxy)-2-(3-oxo-3-phenyl-1-propenyl)pyridine], the inhibition at 10 µM worked out at 104%.

Staying with this assay, now noted: 10^-6 M, ATL-16T(-) 1×10^6 cells/0.5 ml/well, 20 nM PMA, 48 hours, read-out: Inhibition rate of IL-4 production.
As to `COc1cc(/C=C/C(=O)c2ccccc2)ncc1O` [Ex. 21, 5-hydroxy-4-methoxy-2-(3-oxo-3-phenyl-1-propenyl)pyridine], the inhibition at 1 µM stood at 90.3%.

Turning to `CCCCCC(=O)/C=C/c1cc(OC(C)=O)c(OC(C)=O)cn1` [Ex. 11, 4,5-diacetoxy-2-(3-oxo-1-octenyl)pyridine], the inhibition at 1 µM stood at 87.2%.

`COCCOCOc1cc(/C=C/C(=O)c2ccccc2)ncc1OC` [Ex. 48, 5-Methoxy-4-methoxyethoxymethoxy-2-(3-oxo-3-phenyl-1-propenyl)pyridine]: the inhibition at 1 µM came to 74.7%.

On to `COc1cnc(/C=C/C(O)c2ccccc2)cc1O` (stereo not shown) [Ex. 24, 4-Hydroxy-2-(3-hydroxy-3-phenyl-1-propenyl)-5-methoxypyridine], for which the inhibition at 1 µM was determined as 79.5%.

Regarding `CCCCCC(=O)/C=C/c1cc(OCCCC(=O)OCC)c(OC)cn1` [Ex. 13, Ethyl 4-[5-methoxy-2-(3-oxo-1-octenyl)-4-pyridyloxy]butanoate], the inhibition at 1 µM stood at 77%.

Turning to `CCCCCC(=O)/C=C/c1cc(O)c(O)cn1` [Ex. 22, 4,5-Dihydroxy-2-(3-oxo-1-octenyl)pyridine], the inhibition at 1 µM came to 75.5%.

With `COc1cc(/C=C/C(=O)c2ccccc2)ncc1OC(C)=O` [Ex. 6, 5-Acetoxy-4-methoxy-2-(3-oxo-3-phenyl-1-propenyl)pyridine], the inhibition at 1 µM was 86.1%.

`CCCCOc1cc(/C=C/C(=O)c2ccccc2)ncc1OC` [Ex. 46, 4-Butoxy-5-methoxy-2-(3-oxo-3-phenyl-1-propenyl)pyridine]: the inhibition at 1 µM came to 69.1%.

`CCCCCC(O)/C=C/c1cc(OCCCCCC(=O)OC)c(OC)cn1` (stereo not shown) [Ex. 30, Methyl 6-[2-(3-hydroxy-1-octenyl)-5-methoxy-4-pyridyloxy]hexanoate]: the inhibition at 1 µM is 67%.

As for `CCOC(=O)COc1cc(/C=C/C(=O)c2ccccc2)ncc1OC` [Ex. 45], the inhibition at 1 µM turned out to be 86.4%.

`COCOc1cnc(/C=C/C(=O)c2ccccc2)cc1OCOC` [Ex. 5, 4,5-Bis(methoxymethyloxy)-2-(3-oxo-3-phenyl-1-propenyl)pyridine]: the inhibition at 1 µM worked out at 90%.

Staying with this assay, now noted: 10^-7 M, ATL-16T(-) 1×10^6 cells/0.5 ml/well, 20 nM PMA, 48 hours, read-out: Inhibition rate of IL-4 production.
`COc1cc(/C=C/C(=O)c2ccccc2)ncc1O` [Ex. 21, 5-hydroxy-4-methoxy-2-(3-oxo-3-phenyl-1-propenyl)pyridine]: the inhibition at 0.1 µM came out at 80.1%.

Consider `CCCCCC(=O)/C=C/c1cc(OC(C)=O)c(OC(C)=O)cn1` [Ex. 11, 4,5-diacetoxy-2-(3-oxo-1-octenyl)pyridine], for which the inhibition at 0.1 µM is 79.6%.

Turning to `COCCOCOc1cc(/C=C/C(=O)c2ccccc2)ncc1OC` [Ex. 48, 5-Methoxy-4-methoxyethoxymethoxy-2-(3-oxo-3-phenyl-1-propenyl)pyridine], the inhibition at 0.1 µM amounted to 50.1%.

Take `COc1cnc(/C=C/C(O)c2ccccc2)cc1O` (stereo not shown) [Ex. 24, 4-Hydroxy-2-(3-hydroxy-3-phenyl-1-propenyl)-5-methoxypyridine]: the inhibition at 0.1 µM amounted to 69.5%.

Take `CCCCCC(=O)/C=C/c1cc(OCCCC(=O)OCC)c(OC)cn1` [Ex. 13, Ethyl 4-[5-methoxy-2-(3-oxo-1-octenyl)-4-pyridyloxy]butanoate]: the inhibition at 0.1 µM was found to be 68.7%.

Take `CCCCCC(=O)/C=C/c1cc(O)c(O)cn1` [Ex. 22, 4,5-Dihydroxy-2-(3-oxo-1-octenyl)pyridine]: the inhibition at 0.1 µM was found to be 67.6%.

In the case of `COc1cc(/C=C/C(=O)c2ccccc2)ncc1OC(C)=O` [Ex. 6, 5-Acetoxy-4-methoxy-2-(3-oxo-3-phenyl-1-propenyl)pyridine], the inhibition at 0.1 µM was 75.2%.

As for `CCCCOc1cc(/C=C/C(=O)c2ccccc2)ncc1OC` [Ex. 46, 4-Butoxy-5-methoxy-2-(3-oxo-3-phenyl-1-propenyl)pyridine], the inhibition at 0.1 µM is 33.8%.

Regarding `CCCCCC(O)/C=C/c1cc(OCCCCCC(=O)OC)c(OC)cn1` (stereo not shown) [Ex. 30, Methyl 6-[2-(3-hydroxy-1-octenyl)-5-methoxy-4-pyridyloxy]hexanoate], the inhibition at 0.1 µM worked out at 56.8%.

With `CCOC(=O)COc1cc(/C=C/C(=O)c2ccccc2)ncc1OC` [Ex. 45], the inhibition at 0.1 µM is 80.1%.

Consider `COCOc1cnc(/C=C/C(=O)c2ccccc2)cc1OCOC` [Ex. 5, 4,5-Bis(methoxymethyloxy)-2-(3-oxo-3-phenyl-1-propenyl)pyridine], for which the inhibition at 0.1 µM stood at 74%.

Staying with this assay, now noted: 10^-8 M, ATL-16T(-) 1×10^6 cells/0.5 ml/well, 20 nM PMA, 48 hours, read-out: Inhibition rate of IL-4 production.
Regarding `COc1cc(/C=C/C(=O)c2ccccc2)ncc1O` [Ex. 21, 5-hydroxy-4-methoxy-2-(3-oxo-3-phenyl-1-propenyl)pyridine], the inhibition at 0.01 µM worked out at 72.5%.

In the case of `CCCCCC(=O)/C=C/c1cc(OC(C)=O)c(OC(C)=O)cn1` [Ex. 11, 4,5-diacetoxy-2-(3-oxo-1-octenyl)pyridine], the inhibition at 0.01 µM is 78.9%.

Regarding `COCCOCOc1cc(/C=C/C(=O)c2ccccc2)ncc1OC` [Ex. 48, 5-Methoxy-4-methoxyethoxymethoxy-2-(3-oxo-3-phenyl-1-propenyl)pyridine], the inhibition at 0.01 µM amounted to 7.6%.

With `COc1cnc(/C=C/C(O)c2ccccc2)cc1O` (stereo not shown) [Ex. 24, 4-Hydroxy-2-(3-hydroxy-3-phenyl-1-propenyl)-5-methoxypyridine], the inhibition at 0.01 µM stood at 56%.

On to `CCCCCC(=O)/C=C/c1cc(OCCCC(=O)OCC)c(OC)cn1` [Ex. 13, Ethyl 4-[5-methoxy-2-(3-oxo-1-octenyl)-4-pyridyloxy]butanoate], for which the inhibition at 0.01 µM stood at 62.3%.

For `CCCCCC(=O)/C=C/c1cc(O)c(O)cn1` [Ex. 22, 4,5-Dihydroxy-2-(3-oxo-1-octenyl)pyridine], the inhibition at 0.01 µM came to 50%.

Regarding `COc1cc(/C=C/C(=O)c2ccccc2)ncc1OC(C)=O` [Ex. 6, 5-Acetoxy-4-methoxy-2-(3-oxo-3-phenyl-1-propenyl)pyridine], the inhibition at 0.01 µM stood at 58.8%.

In the case of `CCCCOc1cc(/C=C/C(=O)c2ccccc2)ncc1OC` [Ex. 46, 4-Butoxy-5-methoxy-2-(3-oxo-3-phenyl-1-propenyl)pyridine], the inhibition at 0.01 µM is 11.8%.

Take `CCCCCC(O)/C=C/c1cc(OCCCCCC(=O)OC)c(OC)cn1` (stereo not shown) [Ex. 30, Methyl 6-[2-(3-hydroxy-1-octenyl)-5-methoxy-4-pyridyloxy]hexanoate]: the inhibition at 0.01 µM was found to be 40.7%.

In the case of `CCOC(=O)COc1cc(/C=C/C(=O)c2ccccc2)ncc1OC` [Ex. 45], the inhibition at 0.01 µM came to 74%.

With `COCOc1cnc(/C=C/C(=O)c2ccccc2)cc1OCOC` [Ex. 5, 4,5-Bis(methoxymethyloxy)-2-(3-oxo-3-phenyl-1-propenyl)pyridine], the inhibition at 0.01 µM stood at 50.9%.

The test system of another assay is IL-5 production. As to the kind of experiment: Test 3: inhibition of IL-5 production in human PBMC stimulated with ConA. It is filed as cell-based. Particulars: 10^-6 M, 10 μg/ml ConA, 48 hours, read-out: Inhibition rate of IL-5 production. The protocol: Test 3: Test on the inhibition of IL-5 production
The peripheral blood was collected from a normal volunteer and peripheral blood mononuclear cells (PBMC) of the human peripheral blood were separated therefrom by the specific gravity centrifugation method. They were suspended in an AIM-V medium and their cell count was adjusted. To individual wells of a 96-well incubation plate, 1×10^6 cells/ml of PBMC were poured, followed by the addition of a stimulator (10 μg/ml of ConA) and a medicament. The resulting mixture was incubated in 5% CO2 at 37° C. for 48 hours. After incubation, 50 μl of the supernatant were collected and subjected to measurement by a human IL-5 EIA kit (BIO SOURCE, INC.). The inhibition rate was calculated according to the following formula. [formula]
On to `COc1cc(/C=C/C(=O)c2ccccc2)ncc1O` [Ex. 21, 5-hydroxy-4-methoxy-2-(3-oxo-3-phenyl-1-propenyl)pyridine], for which the inhibition at 1 µM stood at 67.3%.

For the compound `CCCCCC(=O)/C=C/c1cc(OC(C)=O)c(OC(C)=O)cn1` [Ex. 11, 4,5-diacetoxy-2-(3-oxo-1-octenyl)pyridine], the inhibition at 1 µM is 77.3%.

`COCCOCOc1cc(/C=C/C(=O)c2ccccc2)ncc1OC` [Ex. 48, 5-Methoxy-4-methoxyethoxymethoxy-2-(3-oxo-3-phenyl-1-propenyl)pyridine]: the inhibition at 1 µM was found to be 62.2%.

In the case of `COc1cnc(/C=C/C(O)c2ccccc2)cc1O` (stereo not shown) [Ex. 24, 4-Hydroxy-2-(3-hydroxy-3-phenyl-1-propenyl)-5-methoxypyridine], the inhibition at 1 µM was determined as 80%.

Turning to `CCCCCC(=O)/C=C/c1cc(OCCCC(=O)OCC)c(OC)cn1` [Ex. 13, Ethyl 4-[5-methoxy-2-(3-oxo-1-octenyl)-4-pyridyloxy]butanoate], the inhibition at 1 µM was 80.9%.

Turning to `CCCCCC(=O)/C=C/c1cc(O)c(O)cn1` [Ex. 22, 4,5-Dihydroxy-2-(3-oxo-1-octenyl)pyridine], the inhibition at 1 µM worked out at 80.9%.

On to `COc1cc(/C=C/C(=O)c2ccccc2)ncc1OC(C)=O` [Ex. 6, 5-Acetoxy-4-methoxy-2-(3-oxo-3-phenyl-1-propenyl)pyridine], for which the inhibition at 1 µM worked out at 67%.

For the compound `CCCCOc1cc(/C=C/C(=O)c2ccccc2)ncc1OC` [Ex. 46, 4-Butoxy-5-methoxy-2-(3-oxo-3-phenyl-1-propenyl)pyridine], the inhibition at 1 µM came out at 86.9%.

Turning to `CCCCCC(O)/C=C/c1cc(OCCCCCC(=O)OC)c(OC)cn1` (stereo not shown) [Ex. 30, Methyl 6-[2-(3-hydroxy-1-octenyl)-5-methoxy-4-pyridyloxy]hexanoate], the inhibition at 1 µM was found to be 73.2%.

Consider `CCOC(=O)COc1cc(/C=C/C(=O)c2ccccc2)ncc1OC` [Ex. 45], for which the inhibition at 1 µM is 64.3%.

Regarding `COCOc1cnc(/C=C/C(=O)c2ccccc2)cc1OCOC` [Ex. 5, 4,5-Bis(methoxymethyloxy)-2-(3-oxo-3-phenyl-1-propenyl)pyridine], the inhibition at 1 µM was determined as 89.3%.
